# e = 2'-O-(2-methoxyethyl) (MOE); d = 2'-deoxy (DNA)
# Experiments:
# EGF-EGFR signaling = experiment: EGFR signaling western blot (p-EGFR, p-ERK), A431 cells; assay type: cell-based; settings: 2 μM for 16 hours
# Outline: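 A431 cells incubated 16 h with PS-ASO (2 μM where stated) or without PS-ASO, then EGF-treated and put through a pulse-chase protocol. Lysates resolved by SDS-PAGE and sequentially immunoblotted for phospho- and total EGFR and ERK.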
# Malat1 RNA = experiment: Antisense activity by RT-qPCR, Malat1, A431 cells; assay type: cell-based
# Procedure: A431 cells were grown at 10,000 cells per well and pre-treated with a variety of growth factors to determine if the addition of exogenous growth factors affects antisense activity or uptake of modified antisense oligonucleotides in a cell. The growth factors used were EGF, insulin growth factor (IGF), transforming growth factor (TGF), […] (VEGF), hepatocyte growth factor (HGF), platelet growth factor (PGF) and fibroblasts growth factor (FGF). To test antisense activity, cells were treated for 4 hours with a growth factor or vehicle alone, and then treated with compound no. 25690 (complementary to Drosha), compound no. 395254 (complementary to Malat1), or vehicle alone. RNA was isolated from the cells and Drosha or Malat1 RNA levels were measured by RT-qPCR. Human primer probe set 13816 (forward sequence […], designated herein as SEQ ID NO: 3; reverse sequence […], designated herein as SEQ ID NO: 4; probe sequence […], designated herein as SEQ ID NO: 5) was used to measure Drosha mRNA levels and primer probe set RTS2736 (forward sequence […], designated herein as SEQ ID NO: 6; reverse sequence […], designated herein as SEQ ID NO: 7; probe sequence TGCCACATCGCCACCCCGT, designated herein as SEQ ID NO: 8) was used to measure Malat1 RNA levels. Drosha and Malat1 RNA levels were normalized to total RNA content, as measured by RIBOGREEN®. Results are presented in the tables below as normalized RNA levels, relative to untreated control cells.
# A431 cells were treated with EGF or TGF at 200 ng/mL in the presence or absence of 1 μM of the EGFR tyrosine kinase inhibitor PD174265. The cells were then treated with compound no. 25690 or compound no. 395254 as in Example 8. Total RNA was isolated and analyzed by RT-qPCR, as in Example 8.
# Following siRNA treatment, cells were treated with compound no. 25690 or compound no. 395254 in the presence or absence of EGF. 16 hours after treatment with a PS-ASO with or without EGF, cells were harvested, and RNA levels were analyzed via RT-qPCR as in Example 8.
sequence,measurement,setting,value
"GGCATATGCAGATAATGTTC (sugars from the 5' end e5 d10 e5, all phosphorothioate, methylation of C not given here) [compound 395254]",EGFR signaling,EGF-EGFR signaling,not be impacted
same,Malat1 RNA (% Control),"Malat1 RNA; 2.0 nM, Control",100.0 % Control
same,Malat1 RNA (% Control),"Malat1 RNA; 2.0 nM, Control Luciferase siRNA",100.0 % Control
same,Malat1 RNA (% Control),"Malat1 RNA; 2.0 nM, Control Luciferase siRNA, Table 27",100 % Control
same,Malat1 RNA (% Control),"Malat1 RNA; 2.0 nM, Control luciferase + EGF",100 % Control
same,Malat1 RNA (% Control),"Malat1 RNA; 2.0 nM, Control, Table 21",100.0 % Control
same,Malat1 RNA (% Control),"Malat1 RNA; 2.0 nM, EGF",100.0 % Control
same,Malat1 RNA (% Control),"Malat1 RNA; 2.0 nM, EGFR siRNA-1",100.0 % Control
same,Malat1 RNA (% Control),"Malat1 RNA; 2.0 nM, EGFR siRNA-2",100.0 % Control
same,Malat1 RNA (% Control),"Malat1 RNA; 2.0 nM, EGFR siRNA-2 + EGF",100 % Control
same,Malat1 RNA (% Control),"Malat1 RNA; 2.0 nM, EGFR siRNA-2, Table 27",100 % Control
same,Malat1 RNA (% Control),"Malat1 RNA; 2.0 nM, TGF",100.0 % Control
same,Malat1 RNA (% Control),"Malat1 RNA; 2.0 nM, TGF+PD174265",100.0 % Control
same,Malat1 RNA (% Control),"Malat1 RNA; 2.0 nM, TGF, Table 21",100.0 % Control
same,Malat1 RNA (% Control),"Malat1 RNA; 3.9 nM, Control",109.0 % Control
same,Malat1 RNA (% Control),"Malat1 RNA; 3.9 nM, Control Luciferase siRNA",72.7 % Control
same,Malat1 RNA (% Control),"Malat1 RNA; 3.9 nM, Control Luciferase siRNA, Table 27",110.2 % Control
same,Malat1 RNA (% Control),"Malat1 RNA; 3.9 nM, Control luciferase + EGF",108.2 % Control
same,Malat1 RNA (% Control),"Malat1 RNA; 3.9 nM, Control, Table 21",110.2 % Control
same,Malat1 RNA (% Control),"Malat1 RNA; 3.9 nM, EGF",76.0 % Control
same,Malat1 RNA (% Control),"Malat1 RNA; 3.9 nM, EGFR siRNA-1",108.4 % Control
same,Malat1 RNA (% Control),"Malat1 RNA; 3.9 nM, EGFR siRNA-2",90.4 % Control
same,Malat1 RNA (% Control),"Malat1 RNA; 3.9 nM, EGFR siRNA-2 + EGF",108.2 % Control
same,Malat1 RNA (% Control),"Malat1 RNA; 3.9 nM, EGFR siRNA-2, Table 27",105.2 % Control
same,Malat1 RNA (% Control),"Malat1 RNA; 3.9 nM, TGF",99.9 % Control
same,Malat1 RNA (% Control),"Malat1 RNA; 3.9 nM, TGF+PD174265",108.2 % Control
same,Malat1 RNA (% Control),"Malat1 RNA; 3.9 nM, TGF, Table 21",105.2 % Control
same,Malat1 RNA (% Control),"Malat1 RNA; 7.8 nM, Control",127.0 % Control
same,Malat1 RNA (% Control),"Malat1 RNA; 7.8 nM, Control Luciferase siRNA",81.9 % Control
same,Malat1 RNA (% Control),"Malat1 RNA; 7.8 nM, Control Luciferase siRNA, Table 27",99.3 % Control
same,Malat1 RNA (% Control),"Malat1 RNA; 7.8 nM, Control luciferase + EGF",91.2 % Control
same,Malat1 RNA (% Control),"Malat1 RNA; 7.8 nM, Control, Table 21",99.3 % Control
same,Malat1 RNA (% Control),"Malat1 RNA; 7.8 nM, EGF",98.1 % Control
same,Malat1 RNA (% Control),"Malat1 RNA; 7.8 nM, EGFR siRNA-1",103.1 % Control
same,Malat1 RNA (% Control),"Malat1 RNA; 7.8 nM, EGFR siRNA-2",85.1 % Control
same,Malat1 RNA (% Control),"Malat1 RNA; 7.8 nM, EGFR siRNA-2 + EGF",99.2 % Control
same,Malat1 RNA (% Control),"Malat1 RNA; 7.8 nM, EGFR siRNA-2, Table 27",105.2 % Control
same,Malat1 RNA (% Control),"Malat1 RNA; 7.8 nM, TGF",101.8 % Control
same,Malat1 RNA (% Control),"Malat1 RNA; 7.8 nM, TGF+PD174265",91.2 % Control
same,Malat1 RNA (% Control),"Malat1 RNA; 7.8 nM, TGF, Table 21",105.2 % Control
same,Malat1 RNA (% Control),"Malat1 RNA; 15.6 nM, Control",125.6 % Control
same,Malat1 RNA (% Control),"Malat1 RNA; 15.6 nM, Control Luciferase siRNA",61.0 % Control
same,Malat1 RNA (% Control),"Malat1 RNA; 15.6 nM, Control Luciferase siRNA, Table 27",87.2 % Control
same,Malat1 RNA (% Control),"Malat1 RNA; 15.6 nM, Control luciferase + EGF",67.2 % Control
same,Malat1 RNA (% Control),"Malat1 RNA; 15.6 nM, Control, Table 21",77.2 % Control
same,Malat1 RNA (% Control),"Malat1 RNA; 15.6 nM, EGF",96.4 % Control
same,Malat1 RNA (% Control),"Malat1 RNA; 15.6 nM, EGFR siRNA-1",98.4 % Control
same,Malat1 RNA (% Control),"Malat1 RNA; 15.6 nM, EGFR siRNA-2",82.5 % Control
same,Malat1 RNA (% Control),"Malat1 RNA; 15.6 nM, EGFR siRNA-2 + EGF",99.2 % Control
same,Malat1 RNA (% Control),"Malat1 RNA; 15.6 nM, EGFR siRNA-2, Table 27",97.2 % Control
same,Malat1 RNA (% Control),"Malat1 RNA; 15.6 nM, TGF",93.2 % Control
same,Malat1 RNA (% Control),"Malat1 RNA; 15.6 nM, TGF+PD174265",77.2 % Control
same,Malat1 RNA (% Control),"Malat1 RNA; 15.6 nM, TGF, Table 21",107.2 % Control
same,Malat1 RNA (% Control),"Malat1 RNA; 31.3 nM, Control",120.2 % Control
same,Malat1 RNA (% Control),"Malat1 RNA; 31.3 nM, Control Luciferase siRNA",47.0 % Control
same,Malat1 RNA (% Control),"Malat1 RNA; 31.3 nM, Control Luciferase siRNA, Table 27",76.3 % Control
same,Malat1 RNA (% Control),"Malat1 RNA; 31.3 nM, Control luciferase + EGF",58.7 % Control
same,Malat1 RNA (% Control),"Malat1 RNA; 31.3 nM, Control, Table 21",66.3 % Control
same,Malat1 RNA (% Control),"Malat1 RNA; 31.3 nM, EGF",111.9 % Control
same,Malat1 RNA (% Control),"Malat1 RNA; 31.3 nM, EGFR siRNA-1",67.4 % Control
same,Malat1 RNA (% Control),"Malat1 RNA; 31.3 nM, EGFR siRNA-2",57.7 % Control
same,Malat1 RNA (% Control),"Malat1 RNA; 31.3 nM, EGFR siRNA-2 + EGF",114.0 % Control
same,Malat1 RNA (% Control),"Malat1 RNA; 31.3 nM, EGFR siRNA-2, Table 27",95.9 % Control
same,Malat1 RNA (% Control),"Malat1 RNA; 31.3 nM, TGF",109.8 % Control
same,Malat1 RNA (% Control),"Malat1 RNA; 31.3 nM, TGF+PD174265",68.7 % Control
same,Malat1 RNA (% Control),"Malat1 RNA; 31.3 nM, TGF, Table 21",55.9 % Control
same,Malat1 RNA (% Control),"Malat1 RNA; 62.5 nM, Control",109.6 % Control
same,Malat1 RNA (% Control),"Malat1 RNA; 62.5 nM, Control Luciferase siRNA",33.2 % Control
same,Malat1 RNA (% Control),"Malat1 RNA; 62.5 nM, Control Luciferase siRNA, Table 27",67.2 % Control
same,Malat1 RNA (% Control),"Malat1 RNA; 62.5 nM, Control luciferase + EGF",54.2 % Control
same,Malat1 RNA (% Control),"Malat1 RNA; 62.5 nM, Control, Table 21",57.2 % Control
same,Malat1 RNA (% Control),"Malat1 RNA; 62.5 nM, EGF",85.9 % Control
same,Malat1 RNA (% Control),"Malat1 RNA; 62.5 nM, EGFR siRNA-1",45.0 % Control
same,Malat1 RNA (% Control),"Malat1 RNA; 62.5 nM, EGFR siRNA-2",43.6 % Control
same,Malat1 RNA (% Control),"Malat1 RNA; 62.5 nM, EGFR siRNA-2 + EGF",79.7 % Control
same,Malat1 RNA (% Control),"Malat1 RNA; 62.5 nM, EGFR siRNA-2, Table 27",77.2 % Control
same,Malat1 RNA (% Control),"Malat1 RNA; 62.5 nM, TGF",91.4 % Control
same,Malat1 RNA (% Control),"Malat1 RNA; 62.5 nM, TGF+PD174265",54.2 % Control
same,Malat1 RNA (% Control),"Malat1 RNA; 62.5 nM, TGF, Table 21",47.2 % Control
same,Malat1 RNA (% Control),"Malat1 RNA; 125 nM, Control",131.6 % Control
same,Malat1 RNA (% Control),"Malat1 RNA; 125 nM, Control Luciferase siRNA",18.9 % Control
same,Malat1 RNA (% Control),"Malat1 RNA; 125 nM, Control Luciferase siRNA, Table 27",44 % Control
same,Malat1 RNA (% Control),"Malat1 RNA; 125 nM, Control luciferase + EGF",37.0 % Control
same,Malat1 RNA (% Control),"Malat1 RNA; 125 nM, Control, Table 21",44.0 % Control
same,Malat1 RNA (% Control),"Malat1 RNA; 125 nM, EGF",62.3 % Control

# Source: patent US20200407717A1, “METHODS OF MODULATING ANTISENSE ACTIVITY” (Ionis Pharmaceuticals, Inc., priority 2018, published 2020)
